Reference: the SangsterLogP compilation

Conditions: pH 7.4

| logD | Structure (SMILES) |
| --- | --- |
| 3.68 | CC(C)Oc1cc(OCCN2CCOCC2)cc2ncnc(Nc3c(Cl)ccc4c3OCO4)c12 |
| 2.8 | Cc1nn(C)c2ccc(N3CCN(C(=O)[C@@H]4CCCC[C@H]4C(=O)NC4(C#N)CC4)[C@H](C)C3)cc12 |
| 1.7 | CS(=O)(=O)c1cccc2c3c([nH]c12)CCN(C(=O)[C@@H]1CCCC[C@H]1C(=O)NC1(C#N)CC1)C3 |
| 3 | N#CC1(NC(=O)[C@@H]2CCCC[C@H]2C(=O)N2CCc3[nH]c4ccc(F)cc4c3C2)CC1 |
| 0.99 | Cc1nc2nc[nH]n2c(=O)c1CCOC(=O)c1ccccc1F |
| 2.4 | N#CC1(NC(=O)[C@@H]2CCCC[C@H]2C(=O)N2CCN(c3nc(C(F)(F)F)cs3)CC2)CC1 |
| 2.88 | Cc1ncc(-c2ccnc(Nc3ccc(N4CCOCC4)cc3)n2)n1C(C)C |
| 2.13 | N#CC1(NC(=O)[C@@H]2CCCC[C@H]2C(=O)N2CCc3[nH]c4ncccc4c3C2)CC1 |
| 1.3 | N#CC1(NC(=O)[C@@H]2CCCC[C@H]2C(=O)N2CCN(c3nccs3)CC2)CC1 |
| 2.4 | COc1ccc2[nH]c3c(c2c1)CN(C(=O)[C@@H]1CCCC[C@H]1C(=O)NC1(C#N)CC1)CC3 |
| 3.6 | Cc1cc(C(C)Nc2ccccc2)c2nc(N3CCOCC3)cc(=O)n2c1 (stereo not given) |
| 3.3 | CN(C(=O)Cc1ccc(-n2cnnn2)cc1)[C@H]1CCN(Cc2ccc(C(F)(F)F)cc2)C[C@H]1F |
| 2.87 | Cc1sc(N2CCN(C(=O)[C@@H]3CCCC[C@H]3C(=O)NC3(C#N)CC3)CC2)nc1C(F)(F)F |
| 2.8 | Fc1ccc(CN2CCN(C3=Nn4c(nnc4C(F)(F)F)CC3)CC2)cc1 |
| 2.49 | COc1cc(OC)c(S(=O)(=O)N2c3ccccc3CCC2C)cc1NC(=O)Cc1ccnc(F)c1 (stereo not given) |
| 4.01 | N#CC1(NC(=O)[C@@H]2CCCC[C@H]2C(=O)N2CCc3[nH]c4c(OC(F)(F)F)cccc4c3C2)CC1 |
| 3.01 | N#CC1(NC(=O)[C@@H]2CCCC[C@H]2C(=O)N2CCc3oc4ccccc4c3C2)CC1 |
| 0.16 | Cc1nc2nc[nH]n2c(=O)c1CCOC(=O)c1c(F)cccc1F |
| 2.4 | CC1(C)COCc2sc(N3CCN(C(=O)[C@@H]4CCCC[C@H]4C(=O)NC4(C#N)CC4)CC3)nc21 |
| 2.99 | Cc1cccc2c3c([nH]c12)CCN(C(=O)[C@@H]1CCCC[C@H]1C(=O)NC1(C#N)CC1)C3 |
| 2.8 | CC(C)(C)OC(=O)N1CCC(c2ncc(OCc3ccc(S(C)(=O)=O)cc3)cn2)CC1 |

| logD | Structure (SMILES) |
| --- | --- |
| 2.7 | C[C@@H]1COCCN1c1cc(C2(S(C)(=O)=O)CC2)nc(-c2cccc3[nH]ccc23)n1 |
| 3 | COc1cc(N2CC3COCC(C2)N3)ccc1Nc1ncc(Cl)c(-c2cnc3ccccn23)n1 |
| 3.65 | N#CC1(NC(=O)[C@@H]2CCCC[C@H]2C(=O)N2CCc3[nH]c4ccc(Cl)cc4c3C2)CC1 |
| 2.77 | CCS(=O)(=O)c1ccc(-c2cc(C(F)(F)F)ccc2OCC(N)=O)c(C)c1 |
| 3.01 | CC(=O)c1ncccc1NC(=O)C1CCC(N2C(=O)[C@@H]3[C@@H]4CC[C@@H](C4)[C@@H]3C2=O)CC1 (stereo not given in full) |
| 3.1 | C[C@@H]1CN(c2nc(C(F)(F)F)no2)CCN1c1ncc(OCc2ccncc2C#N)cn1 |
| 3.37 | COc1cc(OC)c(S(=O)(=O)N2c3ccccc3Oc3ccccc32)cc1NC(=O)Cc1ccnc(F)c1 |
| 3.94 | O=C(Nc1cccc2cccnc12)C1CCC(N2C(=O)[C@@H]3[C@@H]4CC[C@@H](C4)[C@@H]3C2=O)CC1 (stereo not given in full) |
| 1.97 | COc1cc(OC)c(S(=O)(=O)N2c3ccccc3CCC2C)cc1NC(C)=O (stereo not given) |
| 1.9 | CN1CCC(c2cc(N3CCOCC3)nc(-c3cccc4[nH]ccc34)n2)(S(C)(=O)=O)CC1 |
| 1.98 | COCc1ccoc1C(=O)N(c1ccc(OC)cc1OC)C(C(=O)NC[C@@H](C)O)c1ccccc1F (stereo not given in full) |
| 3.7 | C[C@@H]1CN(C(=O)OC(C)(C)C)CCN1c1ncc(OCc2ccc(S(C)(=O)=O)cc2F)cn1 |
| 2.35 | C[C@H]1O[C@@H](n2cnc3c(N)nc(O[C@H]4CC[C@H](C)CC4)nc32)[C@H](O)[C@@H]1O |
| 3.86 | COc1ccc(N(C(=O)c2ccccc2)C(C(=O)NC2CCCC2)c2ccccc2F)c(OC)c1 (stereo not given) |
| 2.7 | NS(=O)(=O)c1ccc(Nc2nccc(-c3cnc4ccccn34)n2)cc1 |
| 1.74 | COc1ccc(N2CCN(C(=O)[C@@H]3CCCC[C@H]3C(=O)NC3(C#N)CC3)CC2)cc1 |
| 1.37 | COc1ccc(N(C(=O)c2occc2CO)C(C(=O)NC[C@@H](C)O)c2ccccc2F)c(OC)c1 (stereo not given in full) |
| 1.32 | Cc1ncc(-c2ccnc(Nc3ccc(S(=O)(=O)CCCN(C)C)cc3)n2)n1C(C)C |
| 1.66 | N#CC1(NC(=O)[C@@H]2CCCC[C@H]2C(=O)N2CCN(c3nc4cnccc4s3)CC2)CC1 |
| 1.93 | Cc1nnc(C)c2cc(N3CCN(C(=O)[C@@H]4CCCC[C@H]4C(=O)NC4(C#N)CC4)[C@H](C)C3)ccc12 |
| 2.2 | CC(=O)N1CCN(CCOc2ccc(C3(O)CCN(c4ccc5nnc(C(F)(F)F)n5n4)CC3)cc2)CC1 |

| logD | Structure (SMILES) |
| --- | --- |
| 1.97 | O=c1cc(O)c2c(=O)n(Cc3ccccc3)c3ccccc3c2o1 |
| 2.76 | CC(=O)NC1CN(c2ccc(Nc3ncc(F)c(-c4cnc(C)n4C(C)C)n3)cc2)C1 |
| 3.1 | C[C@@H]1CN(c2noc(C3CC3)n2)CCN1c1ncc(OCc2ccncc2C#N)cn1 |
| 1.2 | N#Cc1cnc(N2CCN(C(=O)[C@@H]3CCCC[C@H]3C(=O)NC3(C#N)CC3)CC2)s1 |
| 1.69 | Nc1ccccc1NC(=O)c1ccc(-c2ncc(CN3CCC3)cc2F)cc1 |
| 3.2 | CC(C)(C)OC(=O)N1CCN(c2ccc(OCc3ccc(S(C)(=O)=O)cc3)cn2)CC1 |
| 2.7 | Cc1nn(C)c2cc(N3CCN(C(=O)[C@@H]4CCCC[C@H]4C(=O)NC4(C#N)CC4)[C@H](C)C3)ccc12 |
| 3.24 | CCCSc1ncccc1C(=O)NC1CCCCC1 |
| 0.67 | CS(=O)(=O)c1ccc(N2CCN(C(=O)[C@@H]3CCCC[C@H]3C(=O)NCC#N)CC2)cc1 |
| 2.2 | CS(=O)(=O)C1(c2cc(N3CCOCC3)nc(-c3cccc4[nH]ccc34)n2)CC1 |
| 1.49 | CS(=O)(=O)c1ccc2nc(N3CCN(C(=O)[C@@H]4CCCC[C@H]4C(=O)NC4(C#N)CC4)CC3)sc2c1 |
| 3.5 | C[C@H]1CN(C(=O)OC(C)(C)C)CCN1c1ncc(OCc2ccc(S(C)(=O)=O)cc2)cn1 |
| 2.57 | Cc1ncc(-c2ccnc(Nc3ccc(N4CCN(S(C)(=O)=O)CC4)cc3)n2)n1C(C)C |
| 2.52 | Cc1ncc(-c2ccnc(Nc3ccc(N4CCN(S(=O)(=O)CCN(C)C)CC4)cc3)n2)n1C(C)C |
| 2.9 | N#Cc1ccc(CN2CCN(c3ccc4nnc(C(F)(F)F)n4n3)CC2)cc1 |
| 1.9 | CC(C)(C)c1cc2nc3c(c(=O)n2[nH]1)CN(Cc1ccccc1)C3=O |
| 3.4 | CC(C)(C)OC(=O)N1CCN(c2ncc(OCc3ccncc3)cn2)CC1 |
| 3.3 | C[C@@H]1CN(C(=O)OC(C)(C)C)CCN1c1ncc(OCc2ccc(S(C)(=O)=O)cc2C#N)cn1 |
| 2.55 | COc1c/c(=C2\C=c3ccccc3=N2)[nH]/c1=C\c1[nH]c(C)cc1C |
| 2.18 | COc1ccc(N(C(=O)c2occc2Cl)C(C(=O)NC[C@@H](C)O)c2ccccc2F)c(OC)c1 (stereo not given in full) |
| 2.3 | COc1ccc(N2CCN(C(=O)[C@@H]3CCCC[C@H]3C(=O)NC3(C#N)CC3)[C@H](C)C2)nc1OC |

| Structure (SMILES) | logD |
| --- | --- |
| CCCN(c1cccnc1)P(=O)(c1ccccc1)c1ccccc1 | 2.6 |
| C[C@@H](c1ncncc1F)[C@](O)(Cn1cncn1)c1ccc(F)cc1F | 1.7 |
